The subject of the experiment is Corynespora cassiicola. The experiment is described as follows: Corynespora cassiicola (target leaf spot) growth inhibition in nutrient broth, microtiter plate. Format: cell-based. The note with it: PDB broth, 24° C., photometric at 620 nm after 3-4 days, vs untreated check, read-out: % control of Corynespora cassiicola (inhibition of growth). The procedure:
Example 1: Corynespora Cassiicola (Target Leaf Spot) Conidia of the fungus from cryogenic storage were directly mixed into nutrient broth (PDB potato dextrose broth). A DMSO solution of the test compounds was placed into a microtiter plate (96-well format) and the nutrient broth containing the fungal spores was added to it. The test plates were incubated at 24° C. and the inhibition of growth (% control of Corynespora cassiicola) was determined photometrically after 3-4 days at 620 nm. The activity of a compound is derived by comparing the inhibition of growth in the treated test solution to the growth in the untreated check. The concentration of the compounds was 6.7, 2.2, 0.74, 0.25, and 0.082 ppm.

In US20230112306A1, “METHODS OF CONTROLLING OR PREVENTING INFESTATION OF SOYBEAN PLANTS BY THE PHYTOPATHOGENIC MICROORGANISM CORYNESPORA CASSIICOLA” (SYNGENTA CROP PROTECTION AG, priority 2020, published 2023) one finds inhibition data, which are given here for two molecules.

For the molecule `CC1(C)N=C(c2cnc3c(F)cccc3c2)c2ccsc2C1(F)F` [Ic, 7,7-Difluoro-4-(8-fluoro-3-quinolyl)-6,6-dimethyl-6,7-dihydro-1-thia-5-azaindene], the inhibition (usually the percentage by which the read-out fell short of the control) at 0.25 ppm is not below 20%, the inhibition at 0.74 ppm is not below 50%, the inhibition at 2.2 ppm is not below 70% and the inhibition at 6.7 ppm is not below 70%.

Take `Cc1cc(C2=NC(C)(C)C(F)(F)c3ccccc32)cnc1C(F)F` [la, 5-(4,4-Difluoro-3,3-dimethyl-3,4-dihydro-1-isoquinolyl)-2-(difluoromethyl)-3-methylpyridine]: the inhibition at 0.25 ppm is not below 20%, the inhibition at 0.74 ppm was not below 50%, the inhibition at 2.2 ppm was not below 70% and the inhibition at 6.7 ppm is not below 70%.
